Test results published in paper PMC12114375, “Discovery of Hydrazineyl Amide Derivative of Pseudolaric Acid B for Reprogramming Tumor-Associated Macrophages Against Tumor Growth” (Molecules, 2025).

Tests used:
Assay type in all cases: cell-based, mouse
[1] = test system: ARG1 mRNA expression in RAW 264.7 cells; experiment: qRT-PCR of ARG1 mRNA in IL-4/IL-13-stimulated RAW 264.7 cells; settings: 12 h, mean ± SD; for mrna remaining at 10 µM: RAW264.7, IL-4/IL-13 (20 ng/mL) plus compound 10 μM; for mrna remaining at 10 µM / ARG1 mRNA Relative Expression (%): stimulated control = 100%; for ARG1 mRNA Relative Expression (%): IL-4/IL-13 (20 ng/mL) plus compound 10 μM
Excerpt: (§1) We first investigated the impacts of a series of commercially available natural pseudolaric acids or their O-pyranosides (Figure 1) on the pro-tumoral phenotype of TAMs, which play a critical role in anti-tumor immune response modulation. […] In contrast, M1-biased macrophages combat tumor growth and bacterial infections by expressing inducible nitric oxide synthase 2 (NOS2), which catalyzes the production of nitric oxide (NO). Recognizing the pivotal roles of ARG1 and NOS2, we utilized these molecules as key biomarkers and effectors for assessing macrophage immune function. In our experiments, the mouse monocyte–macrophage leukemia cell line RAW 264.7 was induced with IL-4/IL-13 to acquire an M2-like pro-tumoral phenotype. Concurrently, the cells were treated with the pseudolaric acid-related natural products 1–7 at a concentration of 10 μM for 12 h. Additionally, PLX3397 was used as a positive control at a concentration of 0.5 μM. […] As shown in Table 1 and Figure S1A, pseudolaric acid B (1), its deacetoxyl analogue 2 (pseudolaric acid C), and β-D-glucoside 7 substantially attenuated the upregulation of ARG1 mRNA expression induced by IL-4/IL-13, with statistically significant effects. In contrast, bis-carboxylic acids analogs 4 (pseudolaric acid C2) and 6 (demethoxydeacetoxypseudolaric acid B) have no significant impact on ARG1 mRNA expression.
(§2) With these carboxylic acid-modified derivatives in hand, we investigated their impact at 10 μM on ARG1 and NOS2 mRNA expression in RAW 264.7 cells pre-stimulated with IL-4/IL-13 to evaluate the effects on the pro-tumor phenotype of macrophages. […] Further removal of one hydroxyl from the glycerol moiety 15 further enhanced the inhibitory effect on ARG1 expression but had no significant impact on NOS2 expression.
(§3) Total RNA was isolated from cells using the EZ-press RNA Purification Kit (EZBioscience, Suzhou, China) and subjected to reverse transcription with the 5×HiScript II qRT SuperMix II (Vazyme, Nanjing, China). PCR was performed with the 2×ChamQ Universal SYBR qPCR Master Mix (Vazyme, Nanjing, China). All primers for qRT-PCR are described in Table S1. The 2^−∆∆Ct method was utilized to calculate the fold change in gene expression, with the expression levels in the stimulated group set as the baseline for normalization.

[2] = test system: NOS2 mRNA expression in RAW 264.7 cells; experiment: qRT-PCR of NOS2 mRNA in IL-4/IL-13-stimulated RAW 264.7 cells; settings: 12 h, mean ± SD; for activity at 10 µM: RAW264.7, IL-4/IL-13 (20 ng/mL) plus compound 10 μM; for activity at 10 µM / NOS2 mRNA Relative Expression (%): stimulated control = 100%; for NOS2 mRNA Relative Expression (%): IL-4/IL-13 (20 ng/mL) plus compound 10 μM
Excerpt: as §1, §2, §3

[3] = test system: Raw264.7 cells; experiment: Cell viability (CCK-8) of RAW264.7 cells; settings: IL-4/IL-13 plus compound 10 μM, 12 h
Procedure: Cells were seeded in 96-well tissue culture plates. On the next day, cells were exposed to various concentrations of compounds and further cultured for the indicated period. Finally, cell proliferation was determined by using the Cell Counting Kit (CCK-8) (Dojindo, Kumamoto, Japan) assay.
Figure S2. Effects of natural pseudolaric acids 1-4, 6 and their O-pyranosides 5, 7 as well as the derivatives 8-18 o f 1 on Raw264.7 cell viability. Raw264.7 cells were treated with IL-4/IL-13 alone or combined with indicated compounds (10 μM) for 12 h. After incubation, the cell viability was determined using a cell counting kit (CCK-8, Dojindo, Japan) assay.
(1 picture or pasted object on this page, not shown here)

[4] = Mus musculus, read-out: ARG1 mRNA Relative Expression (%)
[5] = Mus musculus, read-out: NOS2 mRNA Relative Expression (%)

FC(F)(F)c1ccc(CNc2ccc(Cc3c[nH]c4ncc(Cl)cc34)cn2)cn1 [PLX3397, reference compound]
mrna remaining at 0.5 µM ([1]; Mus musculus, RAW264.7, IL-4/IL-13 (20 ng/mL) plus positive control 0.5 μM, read-out: ARG1 mRNA Relative Expression (%)): 3.2 ± 2.4%
activity at 0.5 µM ([2]; Mus musculus, RAW264.7, IL-4/IL-13 (20 ng/mL) plus positive control 0.5 μM, read-out: NOS2 mRNA Relative Expression (%)): 193 ± 10.2%

COC(=O)C1=CC[C@@]23CC[C@@H]([C@@](C)(/C=C/C=C(\C)C(=O)O[C@H]4OC[C@@H](OC(C)=O)[C@H](OC(C)=O)[C@H]4OC(C)=O)OC2=O)[C@@]3(OC(C)=O)CC1 [compound 17, (2R,3R,4S,5R)-2-(((2E,4E)-5-((3R,4S,4aS,9aR)-4a-Acetoxy-7-(methoxycarbonyl)-3-methyl-1-oxo-3,4,4a,5,6,9-hexahydro-1H-4,9a-ethanocyclohepta[c]pyran-3-yl)-2-methylpenta-2,4-dienoyl)oxy)tetrahydro-2H-pyran-3,4,5-triyl triacetate]
mrna remaining at 10 µM [1, 4]: 32.3 ± 19.2%
activity at 10 µM [2, 5]: 91.3 ± 6.9%

COC(=O)C1=CC[C@@]23CC[C@@H]([C@@](C)(/C=C/C=C(\C)C(=O)NCC(F)(F)F)OC2=O)[C@@]3(OC(C)=O)CC1 [compound 9, Methyl (3R,4S,4aS,9aR)-4a-acetoxy-3-methyl-3-((1E,3E)-4-methyl-5-oxo-5-((2,2,2-trifluoroethyl)amino)penta-1,3-dien-1-yl)-1-oxo-3,4,4a,5,6,9-hexahydro-1H-4,9a-ethanocyclohepta[c]pyran-7-carboxylate]
mrna remaining at 10 µM [1, 4]: 7.4%
NOS2 mRNA Relative Expression (%) [2]: 148.7 ± 14.1%
activity at 10 µM [2, 5]: 149%

COC(=O)C1=CC[C@@]23CC[C@@H]([C@@](C)(/C=C/C=C(\C)C(=O)OC4O[C@H](COC(C)=O)[C@@H](OC(C)=O)C(OC(C)=O)[C@H]4OC(C)=O)OC2=O)[C@@]3(OC(C)=O)CC1 (stereo partly drawn) [compound 16, (3R,5R,6R)-2-(((2E,4E)-5-((3R,4S,4aS,9aR)-4a-Acetoxy-7-(methoxycarbonyl)-3-methyl-1-oxo-3,4,4a,5,6,9-hexahydro-1H-4,9a-ethanocyclohepta[c]pyran-3-yl)-2-methylpenta-2,4-dienoyl)oxy)-6-(acetoxymethyl)tetrahydro-2H-pyran-3,4,5-triyl triacetate]
mrna remaining at 10 µM [1, 4]: 80 ± 27.5%
activity at 10 µM [2, 5]: 95.2 ± 23%

CC(=O)O[C@]12CCC(C(=O)O)=CC[C@]13CC[C@H]2[C@@](C)(/C=C/C=C(\C)C(=O)O)OC3=O [compound 4, pseudolaric acid C2, reference compound]
mrna remaining at 10 µM [1, 4]: 87.4 ± 25.4%
activity at 10 µM [2, 5]: 131 ± 14.5%

COC(=O)C1=CC[C@@]23CC[C@@H]([C@@](C)(/C=C/C=C(\C)C(=O)NC(CO)(CO)CO)OC2=O)[C@@]3(OC(C)=O)CC1 [compound 14, Methyl(3R,4S,4aS,9aR)-4a-acetoxy-3-((1E,3E)-5-((1,3-dihydroxy-2-(hydroxymethyl)propan-2-yl)amino)-4-methyl-5-oxopenta-1,3-dien-1-yl)-3-methyl-1-oxo-3,4,4a,5,6,9-hexahydro-1H-4,9a-ethanocyclohepta[c]pyran-7-carboxylate]
mrna remaining at 10 µM [1, 4]: 42.2 ± 9.5%
activity at 10 µM [2, 5]: 136 ± 8%

CC(=O)O[C@]12CCC(C)=CC[C@]13CC[C@H]2[C@@](C)(/C=C/C=C(\C)C(=O)O)OC3=O [compound 3, pseudolaric acid A, reference compound]
mrna remaining at 10 µM [1, 4]: 343 ± 27.9%
activity at 10 µM [2, 5]: 297 ± 6.8%

(2R,3S,4S,5R,6R)-6-(((2E,4E)-5-((3R,4S,4aS,9aR)-4a-Acetoxy-7-(methoxycarbonyl)-3-methyl-1-oxo-3,4,4a,5,6,9-hexahydro-1H-4,9a-ethanocyclohepta[c]pyran-3-yl)-2-methylpenta-2,4-dienoyl)oxy)tetrahydro-2H-pyran-2,3,4,5-tetrayl tetraacetate [compound 18]
ARG1 mRNA Relative Expression (%) [1]: 42.6 ± 30.2%
NOS2 mRNA Relative Expression (%) [2]: 58.7 ± 4.5%

COC(=O)C1=CC[C@@]23CC[C@@H]([C@@](C)(/C=C/C=C(\C)C(=O)O)OC2=O)[C@@]3(O)CC1 [compound 2, pseudolaric acid C, reference compound]
mrna remaining at 10 µM [1, 4]: 17.3 ± 9.1%
activity at 10 µM [2, 5]: 80.1 ± 15.6%

COC(=O)C1=CC[C@@]23CC[C@@H]([C@@](C)(/C=C/C=C(\C)C(=O)NCC(C)O)OC2=O)[C@@]3(OC(C)=O)CC1 (stereo partly drawn) [compound 10, Methyl(3R,4S,4aS,9aR)-4a-acetoxy-3-((1E,3E)-5-((2-hydroxypropyl)amino)-4-methyl-5-oxopenta-1,3-dien-1-yl)-3-methyl-1-oxo-3,4,4a,5,6,9-hexahydro-1H-4,9a-ethanocyclohepta[c]pyran-7-carboxylate]
mrna remaining at 10 µM [1, 4]: 7.5%
activity at 10 µM [2, 5]: 103 ± 7.2%

(2E,4E)-5-((3R,4S,4aS,9aR)-4a-acetoxy-7-(methoxycarbonyl)-3-methyl-1-oxo-3,4,4a,5,6,9-hexahydro-1H-4,9a-ethanocyclohepta[c]pyran-3-yl)-2-methylpenta-2,4-dienoic acid [compound 15]
ARG1 mRNA Relative Expression (%) [1]: 18.7 ± 18.0%
NOS2 mRNA Relative Expression (%) [2]: 130.3 ± 5.8%

COC(=O)C1=CC[C@@]23CC[C@@H]([C@@](C)(/C=C/C=C(\C)C(=O)O[C@@H]4O[C@H](CO)[C@@H](O)[C@H](O)[C@H]4O)OC2=O)[C@@]3(OC(C)=O)CC1 [compound 7, reference compound]
mrna remaining at 10 µM [1, 4]: 21.2 ± 13%
activity at 10 µM [2, 5]: 307 ± 36.2%
cell viability [3]: only a minimal reduction in cell viability

CC(=O)O[C@]12CCC(C)=CC[C@]13CC[C@H]2[C@@](C)(/C=C/C=C(\C)C(=O)O[C@@H]1O[C@H](CO)[C@@H](O)[C@H](O)[C@H]1O)OC3=O [compound 5, reference compound]
mrna remaining at 10 µM [1, 4]: 16.2 ± 9.2%
activity at 10 µM [2, 5]: 158 ± 17.2%

COC(=O)C1=CC[C@@]23CC[C@@H]([C@@](C)(/C=C/C=C(\C)C(=O)NCCN(CCO)CCO)OC2=O)[C@@]3(OC(C)=O)CC1 [compound 13, Methyl(3R,4S,4aS,9aR)-4a-acetoxy-3-((1E,3E)-5-((2-(bis(2-hydroxyethyl)amino)ethyl)amino)-4-methyl-5-oxopenta-1,3-dien-1-yl)-3-methyl-1-oxo-3,4,4a,5,6,9-hexahydro-1H-4,9a-ethanocyclohepta[c]pyran-7-carboxylate]
mrna remaining at 10 µM [1, 4]: 72.2 ± 10.2%
activity at 10 µM [2, 5]: 134 ± 5%
